# Biological target: ALS enzyme extracted from Mutant 1 (heterozygous)
# Test: ALS enzyme assay, heterozygous Mutant 1
# Type: biochemical, Zea mays
# Conditions: ALS of heterozygous Mutant 1; read-out: ID50% (the source's name)
# Experimental: (§1) Seeds of generation M₁BC₁ M₁BC₂ of the nine mutants were sprayed pre-emergence with the herbicide imazethapyr (PURSUIT) (Trade Mark) at a rate of 250 g/ha and grown in a growth chamber (16 hour day, 27°C; 8 hour night, 17°C). Plants were harvested after 11 days.
# (§2) Four grams of leaf material were harvested from just above the first leaf axis and ground in a mortar and pestle in 20ml of a solution containing 40mM Tricine (Trade Mark), 10mM EDTA, 5mM pyruvate, 80 »M flavin adenine dinucleotide (FAD), 1mM dithiothreitol (DTT), pH 8, plus 0.8g Polyclar AT. The homogenate was pressed through four layers of muslin and centrifuged at 30,000g for 20 minutes.
# (§3) The supernatant was brought to 65% saturation with ammonium sulphate, left to precipitate for 30 minutes and then centrifuged at 30.000g for 20 minutes. The pellet was resuspended in 2.5ml of 40mM Tricine, 10mM EDTA, 5mM pyruvate, 80»M FAD, 25% (v/v) glycerol, 1mM DTT, pH 8, and desalted into 3.5ml of 40mM Tricine, 10mM EDTA, 25% (v/v) glycerol, 1mM DTT, pH 8.
# (§4) One hundred microlitres of the enzyme extract was used for each assay. Final reagent concentrations were: 120mM Tricine, 50mM pyruvate, 10mM MgCl₂, […], 93»M thiamine pyrophosphate (TPP), pH 8, in the presence or absence of a herbicide of interest, in a volume of 750 »l. Incubations were carried out at 37°C for 30 minutes. Reactions were stopped with 250»l of 1.84M sulphuric acid, and decarboxylation of the acetolactate carried out at 37°C for 75 minutes, or at 60°C for 30 minutes. Assay blanks had sulphuric acid added prior to the enzyme extract. To the samples and blanks 650»l of α-naphthol in 2.73M NaOH/0.16%(w/v) creatine were added followed by incubation at 37°C for 30 minutes. After centrifugation at 30,000g the optical density of the supernatant was read at 540nm.
# (§5) The assay procedure described was carried out on ALS enzyme extracted from each of the nine mutants for the following herbicides: imazethapyr (PURSUIT) imazapyr (ARSENAL) imazaquin (SCEPTER) chlorsulfuron (GLEAN) chlorimuron (CLASSIC) […] (HARMONY) The enzyme activity graphs are given as Figures 3 to 8. In addition, homozygous lines of mutants 1 and 2 which were selected from generation M₁BC₁S₂, were also tested against the same group of herbicides and against representatives of the triazolopyrimidines and phenoxypyrimidines. The chemical structures of these herbicides are shown in Figure 2 of the accompanying drawings.
# (§6) From the enzyme assay data it is possible to derive, as a measure of the degree of inhibition the factor ID50% for each mutant and for each herbicide. This factor is indicative of the herbicide concentration which gives 50% inhibition of the ALS activity in comparison with the wild-type control. It is also possible to derive the fold increase in resistance.
row,SMILES,IC50
1,"COc1cc(Cl)nc(NC(=O)NS(=O)(=O)c2ccccc2C(=O)O)n1 [Chlorimuron, chlorimuron]",0.005 µM
2,"COc1nc(C)nc(NC(=O)NS(=O)(=O)c2ccccc2Cl)n1 [Chlorsulfuron, chlorsulfuron]",0.065 µM

# Same assay, conditions: Mutant 1; groups Strong, Intermediate, Weak, Zero
row,SMILES,"resistance group, Enzyme Assay"
1,"COc1cc(Cl)nc(NC(=O)NS(=O)(=O)c2ccccc2C(=O)O)n1 [Chlorimuron, chlorimuron]",Weak
2,"COc1nc(C)nc(NC(=O)NS(=O)(=O)c2ccccc2Cl)n1 [Chlorsulfuron, chlorsulfuron]",Weak

# Same assay, conditions: fold increase in resistance vs wild type, heterozygous Mutant 1; 30 min
row,SMILES,Fold Increase
1,"COc1cc(Cl)nc(NC(=O)NS(=O)(=O)c2ccccc2C(=O)O)n1 [Chlorimuron, chlorimuron]",1
2,"COc1nc(C)nc(NC(=O)NS(=O)(=O)c2ccccc2Cl)n1 [Chlorsulfuron, chlorsulfuron]",4

# Biological target: ALS enzyme extracted from Mutant 2 (heterozygous)
# Test: ALS enzyme assay, heterozygous Mutant 2
# Type: biochemical, Zea mays
# Conditions: ALS of heterozygous Mutant 2; read-out: ID50% (the source's name)
# Experimental: as §1, §2, §3, §4, §5, §6
row,SMILES,IC50
1,"COc1cc(Cl)nc(NC(=O)NS(=O)(=O)c2ccccc2C(=O)O)n1 [Chlorimuron, chlorimuron]",0.01 µM
2,"COc1nc(C)nc(NC(=O)NS(=O)(=O)c2ccccc2Cl)n1 [Chlorsulfuron, chlorsulfuron]",0.065 µM

# Same assay, conditions: Mutant 2; groups Strong, Intermediate, Weak, Zero
row,SMILES,"resistance group, Enzyme Assay"
1,"COc1cc(Cl)nc(NC(=O)NS(=O)(=O)c2ccccc2C(=O)O)n1 [Chlorimuron, chlorimuron]",Weak
2,"COc1nc(C)nc(NC(=O)NS(=O)(=O)c2ccccc2Cl)n1 [Chlorsulfuron, chlorsulfuron]",Weak

# Same assay, conditions: fold increase in resistance vs wild type, heterozygous Mutant 2; 30 min
row,SMILES,Fold Increase
1,"COc1cc(Cl)nc(NC(=O)NS(=O)(=O)c2ccccc2C(=O)O)n1 [Chlorimuron, chlorimuron]",3
2,"COc1nc(C)nc(NC(=O)NS(=O)(=O)c2ccccc2Cl)n1 [Chlorsulfuron, chlorsulfuron]",4

# Biological target: ALS enzyme extracted from Mutant 8 (heterozygous)
# Test: ALS enzyme assay, heterozygous Mutant 8
# Type: biochemical, Zea mays
# Conditions: ALS of heterozygous Mutant 8; read-out: ID50% (the source's name)
# Experimental: as §1, §2, §3, §4, §5, §6
row,SMILES,IC50
1,"COc1cc(Cl)nc(NC(=O)NS(=O)(=O)c2ccccc2C(=O)O)n1 [Chlorimuron, chlorimuron]",0.01 µM
2,"COc1nc(C)nc(NC(=O)NS(=O)(=O)c2ccccc2Cl)n1 [Chlorsulfuron, chlorsulfuron]",0.075 µM

# Same assay, conditions: Mutant 8; groups Strong, Intermediate, Weak, Zero
row,SMILES,"resistance group, Enzyme Assay"
1,"COc1cc(Cl)nc(NC(=O)NS(=O)(=O)c2ccccc2C(=O)O)n1 [Chlorimuron, chlorimuron]",Zero
2,"COc1nc(C)nc(NC(=O)NS(=O)(=O)c2ccccc2Cl)n1 [Chlorsulfuron, chlorsulfuron]",Weak

# Same assay, conditions: fold increase in resistance vs wild type, heterozygous Mutant 8; 30 min
row,SMILES,Fold Increase
1,"COc1cc(Cl)nc(NC(=O)NS(=O)(=O)c2ccccc2C(=O)O)n1 [Chlorimuron, chlorimuron]",3
2,"COc1nc(C)nc(NC(=O)NS(=O)(=O)c2ccccc2Cl)n1 [Chlorsulfuron, chlorsulfuron]",4

# Biological target: ALS extracted from leaves of MUTANT 1 (homozygous)
# Test: ALS enzyme assay, homozygous Mutant 1
# Type: biochemical, Zea mays
# Conditions: ALS of homozygous Mutant 1; read-out: ID50% Mutant
# Experimental: as §2, §3, §4, §5, §6
row,SMILES,IC50
1,"COc1cc(Cl)nc(NC(=O)NS(=O)(=O)c2ccccc2C(=O)O)n1 [Chlorimuron, chlorimuron]",0.01 µM
2,"COc1nc(C)nc(NC(=O)NS(=O)(=O)c2ccccc2Cl)n1 [Chlorsulfuron, chlorsulfuron]",0.06 µM

# Same assay, conditions: fold increase in resistance vs wild type, homozygous Mutant 1; 30 min
row,SMILES,Fold Increase
1,"COc1cc(Cl)nc(NC(=O)NS(=O)(=O)c2ccccc2C(=O)O)n1 [Chlorimuron, chlorimuron]",2.7
2,"COc1nc(C)nc(NC(=O)NS(=O)(=O)c2ccccc2Cl)n1 [Chlorsulfuron, chlorsulfuron]",3.2

# Tested on: Mutant 1 plants
# Test: Cross-resistance testing (glasshouse dose response), Mutant 1
# Type: in vivo, Zea mays
# Conditions: pre-emergence spray, assessed after four weeks growth
# Text: (§7) The seeds used in this screen were populations of mixed tolerant and sensitive seed, segregating 1:1, derived from each of the heterogygous, tolerant mutants crossed with homozygous, sensitive UE95. All of the tolerant progeny are heterozygous for tolerance. Each of the mutants identified above were used except mutant 4. The controls were seed of self-pollinated UE95 which was pollinated in the same year as the tolerant lines.
# (§8) One litre of compost was placed in each seed tray of dimensions 19cm x 11cm x 5cm deep and firmed down flat. Two furrows 1 cm deep were drawn in the surface of the compost in each tray and six seeds were sown in each furrow (total twelve seeds per tray). Some trays were sown with 24 seeds, in which case three furrows were made and 8 seeds sown per furrow.
# (§9) In each test each tray contained either the seed of one mutant or of the UE95 control for each herbicide application rate and for the untreated control.
# (§10) Five different types of ALS-inhibitor herbicides were tested on the mutants plus imazethapyr (PURSUIT) as a comparison. Four rates of each were applied; approximately 0.1x, 0.5x, 1x and 4x the estimated field rates for each herbicide. The rates are the same for mutant 3 to 10 but higher rates for chlorimuron (CLASSIC) and lower rates for chlorsulfuron (GLEAN) were applied to mutants 1 and 2.
# (§11) The rates of application used in the screening tests were as follows: chlorimuron (CLASSIC) 4,20,40,160 g/Ha (mutants 1 and 2); and, 8,40,80,320 g/Ha (mutants 3 to 10); chlorsulfuron (GLEAN) 5,25,50,200 g/Ha (mutants 1 and 2); and, 1,5,10,40 g/Ha (mutants 3 to 10); imazaquin (SCEPTER) 30,150,300,1200 g/Ha; triazolopyrimidine 5,25,50,200 g/Ha; phenoxypyrimidine 10,50,100,400 g/Ha; and, imazethapyr (PURSUIT) 30,150,300,1200 g/Ha The triazolopyrimidine and phenoxypyrimidine were formulated in an adjuvant wetting agent known as JF5969 and diluted with water to make a final concentration of 10% JF5969. The remaining compounds were diluted with water only.
# (§12) The spray jet and parameters were as decribed above under "SCREENING". After spraying, the seeds were covered with 0.5 litre of compost and firmed down flat (2.5cm covering) and grown under the conditions described under "SCREENING" above.
# (§13) Visual assessments were made of the plants after four weeks growth. Each plant was scored on a scale of zero to 5 and the height measured from soil surface to the tallest leaf tip. The scoring scale was as follows: 0 - 0 to 10% damage (little or no herbicidal effect) 1 - 11 to 25% damage 2 - 26 to 50% damage 3 - 51 to […] 4 - 81 to 95% damage 5 - 96 to 100% damage (complete death of the plant) In carrying out these assessments, plants which were obviously of the sensitive phenotype were ignored (approximately 50% of the plants). […]
row,SMILES,"resistance group, Dose Response"
1,"COc1cc(Cl)nc(NC(=O)NS(=O)(=O)c2ccccc2C(=O)O)n1 [Chlorimuron, chlorimuron]",Zero
2,"COc1nc(C)nc(NC(=O)NS(=O)(=O)c2ccccc2Cl)n1 [Chlorsulfuron, chlorsulfuron]",Zero

# Tested on: Mutant 2 plants
# Test: Cross-resistance testing (glasshouse dose response), Mutant 2
# Type: in vivo, Zea mays
# Conditions: pre-emergence spray, assessed after four weeks growth
# Text: as §7, §8, §9, §10, §11, §12, §13
row,SMILES,"resistance group, Dose Response"
1,"COc1cc(Cl)nc(NC(=O)NS(=O)(=O)c2ccccc2C(=O)O)n1 [Chlorimuron, chlorimuron]",Zero
2,"COc1nc(C)nc(NC(=O)NS(=O)(=O)c2ccccc2Cl)n1 [Chlorsulfuron, chlorsulfuron]",Zero

# Tested on: Mutant 10 plants
# Test: Cross-resistance testing (glasshouse dose response), Mutant 10
# Type: in vivo, Zea mays
# Conditions: pre-emergence spray, assessed after four weeks growth
# Text: as §7, §8, §9, §10, §11, §12, §13
row,SMILES,"resistance group, Dose Response"
1,"COc1cc(Cl)nc(NC(=O)NS(=O)(=O)c2ccccc2C(=O)O)n1 [Chlorimuron, chlorimuron]",Weak
2,"COc1nc(C)nc(NC(=O)NS(=O)(=O)c2ccccc2Cl)n1 [Chlorsulfuron, chlorsulfuron]",Weak and Zero
